Results published in patent EP0627489B1, “Methods and compositions for the treatment of malignancies in which a protein kinase is associated” (WASHINGTON RESEARCH FOUNDATION, priority 1990, dated 1991).
Values joined by “and” are separate entries in the source; they are usually repeats but may differ in a detail not shown here. Identical values can stand only once. Like-named read-outs stand apart in the source and are kept apart here. Blank lines part the entries; values can stand above or below the compound they belong to.

Key:
Format in all cases: biochemical
TCΔC11.PTPase [1] = target: T1, TCΔC11.PTPase (Homo sapiens, UniProt P17706); assay: Effectors of PTPase activity, truncated enzyme
T1 construct: a truncated PTPase in which an 11-kDa segment was deleted from the carboxyl end (TCΔC11.PTPase-transfected cells); made in house; host or cells: Sf9 (Spodoptera frugiperda) insect cells, recombinant baculovirus (pVL 941)
T1 sequence (P17706 1-317 limits assumed): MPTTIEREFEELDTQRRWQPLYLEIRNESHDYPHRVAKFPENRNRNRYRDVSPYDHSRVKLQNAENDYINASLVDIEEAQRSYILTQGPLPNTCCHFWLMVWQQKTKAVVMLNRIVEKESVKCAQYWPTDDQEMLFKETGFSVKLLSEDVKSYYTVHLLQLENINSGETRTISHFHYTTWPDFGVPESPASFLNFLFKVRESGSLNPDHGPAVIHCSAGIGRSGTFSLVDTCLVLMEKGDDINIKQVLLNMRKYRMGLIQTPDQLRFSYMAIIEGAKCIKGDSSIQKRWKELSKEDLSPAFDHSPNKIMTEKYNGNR

TC.PTPase = target: T2, TC.PTPase (Homo sapiens, UniProt P17706); assay: Effectors of PTPase activity, full-length enzyme
T2 construct: open reading frames of the full-length 48-kDa T cell PTPase (TC.PTPase); made in house; host or cells: Sf9 (Spodoptera frugiperda) insect cells, recombinant baculovirus (pVL 941)
T2 sequence (P17706 1-415): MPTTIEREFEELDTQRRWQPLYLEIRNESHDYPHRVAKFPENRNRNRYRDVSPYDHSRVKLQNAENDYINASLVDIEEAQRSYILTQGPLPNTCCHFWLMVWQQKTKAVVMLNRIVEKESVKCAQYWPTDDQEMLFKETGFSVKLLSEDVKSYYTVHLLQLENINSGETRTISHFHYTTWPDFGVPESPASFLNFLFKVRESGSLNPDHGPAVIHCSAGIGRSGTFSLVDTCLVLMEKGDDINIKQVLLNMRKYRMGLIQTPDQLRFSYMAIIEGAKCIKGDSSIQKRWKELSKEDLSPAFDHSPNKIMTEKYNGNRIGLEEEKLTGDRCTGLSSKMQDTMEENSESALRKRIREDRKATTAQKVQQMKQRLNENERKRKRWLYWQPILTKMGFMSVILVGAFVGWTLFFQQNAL
Experimental: (§1) Cell extracts or purified enzymes were assayed for tyrosine phosphatase using a method described by Tonks et al., in "Purification of the Major Protein-tyrosine-phosphatases of Human Placenta," J. Biol. Chem. (263):6722-6730, 1988, based on measurement of the release of ^32P from labeled substrate. Since phosphorylation of reduced, carboxyamidomethylated, maleylated (RCM)-lysozyme is not stoichiometric, concentrations are expressed in terms of ^32P phosphotyrosine. Briefly, a mixture of 0.02 ml of PTPase (diluted to less than 1 unit/ml in Buffer A) and 0.02 ml of Buffer A was warmed at 30°C for 5 minutes. Buffer A is composed of 25 mM imidazole HCl […], 1 mg/ml BSA, 0.1% (v/v) β-mercaptoethanol. […] The reaction was terminated after approximately 10 minutes by addition of 0.18 ml of 20% (w/v) trichloroacetic acid and 0.02 ml of 25 mg/ml BSA, added as a carrier protein. The suspension was vortexed, allowed to stand on ice for 10 minutes, and centrifuged at 12,500 x g for 3 minutes. A 0.2-ml aliquot of the supernatant was added to 1 ml of Aquasol scintillant and counted in a Beckman LS7000 scintillation counter. […] Blank incubations were performed in which the PTPase was replaced by Buffer A, and total ^32P was determined by counting 0.02 ml of the substrate. […] One unit of PTPase activity is defined as that amount which releases 1 nmol of phosphate/min. […]

TCΔC11.PTPase [2] = target: T1, TCΔC11.PTPase; assay: Effectors of PTPase activity, truncated enzyme; conditions: substrate RCML 5 µM
Experimental: as §1

[3] = effector 0.01 µM, substrate MBP 5 µM
[4] = effector 1 µM, substrate MBP 5 µM
[5] = effector 10 µM, substrate MBP 5 µM
[6] = effector 10 µM, substrate RCML 5 µM
[7] = effector 100 µM, substrate MBP 5 µM
[8] = effector 2 mM, substrate MBP 5 µM

Compound: NCCCNCCCCNCCCN [spermine]
Activity, percentage of phosphate released relative to control in which the effector was omitted (TCΔC11.PTPase [1]): 110 percentage and 97 percentage | Activity, percentage of phosphate released relative to control in which the effector was omitted (TC.PTPase): 62 percentage | activation of the full-length enzyme (TC.PTPase): up to sevenfold | remaining activity at 2000 µM (TC.PTPase; 10 min, read-out: Activity, percentage of phosphate released relative to control in which the effector was omitted): 727%

Compound: poly Glu:Tyr 4:1
Activity, percentage of phosphate released relative to control in which the effector was omitted (TCΔC11.PTPase [1]; [3]): 102 percentage | Activity, percentage of phosphate released relative to control in which the effector was omitted (TCΔC11.PTPase [1]; [4]): 104 percentage | Activity, percentage of phosphate released relative to control in which the effector was omitted (TCΔC11.PTPase [1]; [5]): 127 percentage | Activity, percentage of phosphate released relative to control in which the effector was omitted (TCΔC11.PTPase [2]; effector 0.01 µM): 70 percentage | Activity, percentage of phosphate released relative to control in which the effector was omitted (TCΔC11.PTPase [2]; effector 1 µM): 17 percentage | Activity, percentage of phosphate released relative to control in which the effector was omitted (TCΔC11.PTPase [2]; effector 10 µM): 11 percentage | Activity, percentage of phosphate released relative to control in which the effector was omitted (TC.PTPase; [3]): 119 percentage | Activity, percentage of phosphate released relative to control in which the effector was omitted (TC.PTPase; effector 0.01 µM, substrate RCML 5 µM): 66 percentage | Activity, percentage of phosphate released relative to control in which the effector was omitted (TC.PTPase; [4]): 133 percentage | Activity, percentage of phosphate released relative to control in which the effector was omitted (TC.PTPase; effector 1 µM, substrate RCML 5 µM): 18 percentage | Activity, percentage of phosphate released relative to control in which the effector was omitted (TC.PTPase; [5]): 58 percentage | Activity, percentage of phosphate released relative to control in which the effector was omitted (TC.PTPase; [6]): 6 percentage

Compound: molybdate
Activity, percentage of phosphate released relative to control in which the effector was omitted (TCΔC11.PTPase [1]; [5]): 2 percentage | Activity, percentage of phosphate released relative to control in which the effector was omitted (TCΔC11.PTPase [2]; effector 10 µM): 2 percentage | Activity, percentage of phosphate released relative to control in which the effector was omitted (TC.PTPase; [5]): 1 percentage | Activity, percentage of phosphate released relative to control in which the effector was omitted (TC.PTPase; [6]): 0 percentage

Compound: vanadate
Activity, percentage of phosphate released relative to control in which the effector was omitted (TCΔC11.PTPase [1]; [7]): 1 percentage | Activity, percentage of phosphate released relative to control in which the effector was omitted (TCΔC11.PTPase [2]; effector 100 µM): 2 percentage | Activity, percentage of phosphate released relative to control in which the effector was omitted (TC.PTPase; [7]): 0 percentage | Activity, percentage of phosphate released relative to control in which the effector was omitted (TC.PTPase; effector 100 µM, substrate RCML 5 µM): 0 percentage

Activity, percentage of phosphate released relative to control in which the effector was omitted (TCΔC11.PTPase [1]; [8]): 108 percentage | Activity, percentage of phosphate released relative to control in which the effector was omitted (TCΔC11.PTPase [2]; effector 2 mM): 132 percentage | Activity, percentage of phosphate released relative to control in which the effector was omitted (TC.PTPase; [8]): 43 percentage | Activity, percentage of phosphate released relative to control in which the effector was omitted (TC.PTPase; effector 2 mM, substrate RCML 5 µM): 249 percentage
Compound: NCCCCNCCCN [spermidine]

Compound: O=C(O)CN(CCN(CC(=O)O)CC(=O)O)CC(=O)O [EDTA]
Activity, percentage of phosphate released relative to control in which the effector was omitted (TCΔC11.PTPase [1]): 170 percentage and 150 percentage | Activity, percentage of phosphate released relative to control in which the effector was omitted (TC.PTPase): 124 percentage and 137 percentage
